From BindingDB's records for PubMed 38171251 (Indian Institute of Technology (Banaras Hindu University))

Assay: Inhibition of Acetyl-CoA acetyltransferase (unknown origin)

Structure (SMILES)	IC50 [µM]
CC1CCC2(CC1)Nc1ccccc1N=C2NCc1ccccc1Cl (stereo unspecified)	0.171
Clc1ccccc1CNC1=Nc2ccccc2NC12CCNCC2	0.022
Cc1ccc(CNC2=Nc3ccccc3NC23CCCCC3)cc1	0.269
Cc1ccccc1CNC1=Nc2ccccc2NC12CCNCC2	0.025
CC1CCC2(CC1)NC=CN=C2NCc1ccccc1Cl (stereo unspecified)	> 1
Clc1cccc(CNC2=Nc3ccccc3NC23CCNCC3)c1	0.022
